Values quoted from earlier work as cited in US11730745B1, “Kit and new method of treatment for skin basal cell and squamous cell carcinoma” (priority 2022, dated 2023).

System: cancer
Conditions: additional treatment with Selenium

[Se] [Selenium]
Decrease of the frequency of cancer: more than 35%
